Data taken from US11053204B2, “Pyrimidinyloxy benzene derivatives as herbicides” (FMC Corporation, priority 2015, dated 2021).

How the values were obtained:
Format in all cases: in vivo
[1] = system: wheat (winter wheat, Triticum aestivum); assay: Test C preemergence, plant response rating; settings: Preemergence
How it was run: (§1)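 Pre-emergence: seeds sown in loam soil–sand blend or silt loam and sprayed with test chemicals in a non-phytotoxic solvent mixture with surfactant. Post-emergence: plants 2 to 18 cm (1- to 4-leaf stage) in peat-based potting medium, same formulation. Greenhouse 13 to 15 d; visual rating 0 (no effect) to 100 (complete control) versus controls.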

[2] = system: corn (Zea mays); assay: Test C preemergence, plant response rating; settings: Preemergence
How it was run: as §1

[3] = system: ragweed (common ragweed, Ambrosia elatior); assay: Test C preemergence, plant response rating; settings: Preemergence
How it was run: as §1

[4] = system: soybean (Glycine max); assay: Test C preemergence, plant response rating; settings: Preemergence
How it was run: as §1

[5] = system: morningglory (Ipomoea coccinea); assay: Test C preemergence, plant response rating; settings: Preemergence
How it was run: as §1

[6] = system: crabgrass, large (large crabgrass, Digitaria sanguinalis); assay: Test C preemergence, plant response rating; settings: Preemergence
How it was run: as §1

[7] = system: foxtail, giant (giant foxtail, Setaria faberii); assay: Test C preemergence, plant response rating; settings: Preemergence
How it was run: as §1

[8] = system: nutsedge, yellow (yellow nutsedge, Cyperus esculentus); assay: Test C preemergence, plant response rating; settings: Preemergence
How it was run: as §1

[9] = system: blackgrass (Alopecurus myosuroides); assay: Test C preemergence, plant response rating; settings: Preemergence
How it was run: as §1

[10] = system: lambsquarters (Chenopodium album); assay: Test C preemergence, plant response rating; settings: Preemergence
How it was run: as §1

[11] = system: ryegrass, Italian (Italian ryegrass, Lolium multiflorum); assay: Test C preemergence, plant response rating; settings: Preemergence
How it was run: as §1

[12] = system: velvetleaf (Abutilon theophrasti); assay: Test C preemergence, plant response rating; settings: Preemergence
How it was run: as §1

[13] = system: waterhemp (common waterhemp, Amaranthus rudis); assay: Test C preemergence, plant response rating; settings: Preemergence
How it was run: as §1

[14] = system: oilseed rape (Brassica napus); assay: Test C preemergence, plant response rating; settings: Preemergence
How it was run: as §1

[15] = system: barnyardgrass (Echinochloa crus-galli); assay: Test B flooded paddy test, plant response rating; settings: 250 g ai/ha; Flood; scale of 0 to 100 where 0 is no effect and 100 is complete control; 13 to 15 days
How it was run: (§2)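 Under a constant 3 cm flood, test compounds went directly into the paddy water. Following 13 to 15 days of greenhouse growth, treated species and controls were compared by eye.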

[16] = system: rice (Oryza sativa); assay: Test B flooded paddy test, plant response rating; settings: 250 g ai/ha; Flood; scale of 0 to 100 where 0 is no effect and 100 is complete control; 13 to 15 days
How it was run: as §2

[17] = system: sedge, umbrella (small-flower umbrella sedge, Cyperus difformis); assay: Test B flooded paddy test, plant response rating; settings: 250 g ai/ha; Flood; scale of 0 to 100 where 0 is no effect and 100 is complete control; 13 to 15 days
How it was run: as §2

SMILES: N#Cc1cccc(Oc2ncc(Cl)cn2)c1C(=O)OCCC(F)(F)F [Compound 30]
- Plant response rating, Wheat ([1]; 125 g ai/ha, scale of 0 to 100): 10
- Plant response rating, Wheat ([1]; 16 g ai/ha, scale 0 to 100): 0
- Plant response rating, Wheat ([1]; 31 g ai/ha, scale 0 to 100): 0
- Plant response rating, Wheat ([1]; 62 g ai/ha, scale 0 to 100): 0
- Plant response rating, Corn ([2]; 62 g ai/ha, scale of 0 to 100): 0
- Plant response rating, Corn ([2]; 125 g ai/ha, scale of 0 to 100): 5
- Plant response rating, Corn ([2]; 16 g ai/ha, scale 0 to 100): 0
- Plant response rating, Corn ([2]; 31 g ai/ha, scale 0 to 100): 0
- Plant response rating, Ragweed ([3]; 125 g ai/ha, scale of 0 to 100): 0
- Plant response rating, Ragweed ([3]; 16 g ai/ha, scale 0 to 100): 0
- Plant response rating, Ragweed ([3]; 31 g ai/ha, scale 0 to 100): 0
- Plant response rating, Ragweed ([3]; 62 g ai/ha, scale 0 to 100): 0
- Plant response rating, Soybean ([4]; 125 g ai/ha, scale of 0 to 100): 60
- Plant response rating, Soybean ([4]; 16 g ai/ha, scale 0 to 100): 0
- Plant response rating, Soybean ([4]; 62 g ai/ha, scale 0 to 100): 10
- Plant response rating, Morningglory ([5]; 125 g ai/ha, scale of 0 to 100): 35
- Plant response rating, Morningglory ([5]; 16 g ai/ha, scale 0 to 100): 0
- Plant response rating, Morningglory ([5]; 31 g ai/ha, scale 0 to 100): 10
- Plant response rating, Morningglory ([5]; 62 g ai/ha, scale 0 to 100): 10
- Plant response rating, Crabgrass, Large ([6]; 62 g ai/ha, scale of 0 to 100): 80
- Plant response rating, Crabgrass, Large ([6]; 125 g ai/ha, scale of 0 to 100): 98
- Plant response rating, Crabgrass, Large ([6]; 16 g ai/ha, scale 0 to 100): 0
- Plant response rating, Crabgrass, Large ([6]; 31 g ai/ha, scale 0 to 100): 35
- Plant response rating, Foxtail, Giant ([7]; 62 g ai/ha, scale of 0 to 100): 65
- Plant response rating, Foxtail, Giant ([7]; 125 g ai/ha, scale of 0 to 100): 75
- Plant response rating, Foxtail, Giant ([7]; 16 g ai/ha, scale 0 to 100): 5
- Plant response rating, Foxtail, Giant ([7]; 31 g ai/ha, scale 0 to 100): 30
- Plant response rating, Nutsedge, Yellow ([8]; 125 g ai/ha, scale of 0 to 100): 5
- Plant response rating, Nutsedge, Yellow ([8]; 16 g ai/ha, scale 0 to 100): 0
- Plant response rating, Nutsedge, Yellow ([8]; 31 g ai/ha, scale 0 to 100): 0
- Plant response rating, Nutsedge, Yellow ([8]; 62 g ai/ha, scale 0 to 100): 0
- Plant response rating, Blackgrass ([9]; 62 g ai/ha, scale of 0 to 100): 0
- Plant response rating, Blackgrass ([9]; 125 g ai/ha, scale of 0 to 100): 0
- Plant response rating, Blackgrass ([9]; 16 g ai/ha, scale 0 to 100): 0
- Plant response rating, Blackgrass ([9]; 31 g ai/ha, scale 0 to 100): 0
- Plant response rating, Lambsquarters ([10]; 125 g ai/ha, scale of 0 to 100): 55
- Plant response rating, Lambsquarters ([10]; 16 g ai/ha, scale 0 to 100): 10
- Plant response rating, Lambsquarters ([10]; 31 g ai/ha, scale 0 to 100): 25
- Plant response rating, Lambsquarters ([10]; 62 g ai/ha, scale 0 to 100): 30
- Plant response rating, Ryegrass, Italian ([11]; 125 g ai/ha, scale of 0 to 100): 5
- Plant response rating, Ryegrass, Italian ([11]; 16 g ai/ha, scale 0 to 100): 0
- Plant response rating, Ryegrass, Italian ([11]; 31 g ai/ha, scale 0 to 100): 0
- Plant response rating, Ryegrass, Italian ([11]; 62 g ai/ha, scale 0 to 100): 0
- Plant response rating, Velvetleaf ([12]; 125 g ai/ha, scale of 0 to 100): 40
- Plant response rating, Velvetleaf ([12]; 16 g ai/ha, scale 0 to 100): 0
- Plant response rating, Velvetleaf ([12]; 31 g ai/ha, scale 0 to 100): 0
- Plant response rating, Velvetleaf ([12]; 62 g ai/ha, scale 0 to 100): 10
- Plant response rating, Waterhemp ([13]; 125 g ai/ha, scale of 0 to 100): 100
- Plant response rating, Waterhemp ([13]; 16 g ai/ha, scale 0 to 100): 85
- Plant response rating, Waterhemp ([13]; 31 g ai/ha, scale 0 to 100): 100
- Plant response rating, Waterhemp ([13]; 62 g ai/ha, scale 0 to 100): 100
- Plant response rating, Oilseed Rape ([14]; 125 g ai/ha, scale of 0 to 100): 100
- Plant response rating, Oilseed Rape ([14]; 16 g ai/ha, scale 0 to 100): 10
- Plant response rating, Oilseed Rape ([14]; 31 g ai/ha, scale 0 to 100): 55
- Plant response rating, Oilseed Rape ([14]; 62 g ai/ha, scale 0 to 100): 100
- Plant response rating, Barnyardgrass [15]: 0
- Plant response rating, Rice [16]: 0
- Plant response rating, Sedge, Umbrella [17]: 0
